# Tested on: yeast genes (level of expressed mRNA)
# Test: DNA chip analysis of expressed mRNA of yeast genes after 2 h culture with a toxic chemical substance
# Assay type: cell-based, Saccharomyces cerevisiae S288C
# Description: Yeast (Saccharomyces cerevtisiae S288C (α SUC2mal mel gap2 CUP1)) were cultured at 25° C. on YPD medium (yeast extract 1%, polypepton 2%, glucose 2%). One of toxic chemical substances was added to the cell at logarithmic growth phase, and the cell was further cultured for two hours. Cell was cultured without any chemical substance in the same condition, and was used as control. Concentrations of the chemical substances were defined to inhibit the growth of the yeast but not lead to death.
# After the completion of cultivation, the culture was centrifuged to collect the cells. To the cells, sodium acetate buffer (50 mM sodium acetate, 10 mM EDTA, 1% SDS) was added, and the mixture was shaken at 65° C. for five minutes, followed by returning to room temperature, and obtaining the supernatant, which procedure was repeated two times. To the supernatant, ½ amount of a solution of phenol/chloroform was added, and the mixture was centrifuged to give a supernatant, which was added with an equal amount of chloroform, and the mixture was centrifuged to give a supernatant. To the supernatant, an equal amount of isopropanol containing 0.3 M sodium acetate was added, and the mixture was allowed to stand at room temperature for 30 minutes, after which the mixture was centrifuged to give a sediment of the whole RNAs. Seventy % ethanol was added to the sediment, and the mixture was again centrifuged to give a sediment, which was then dried and dissolved in water. mRNA was isolated from the whole RNAs as followings. In view of the fact that a poly A chain is attached to the 3′ terminus of mRNA, a polynucleotide having a poly T structure which was immobilized on the surface of latex beads was used to trap the mRNA, and then the mRNA was washed and eluted with spine column (Oligotex-dT30<Super>mRNA Purification Kit, Takara). Reverse transcription of the mRNA was conducted with a reverse transcriptase (Super Script II Reverse Transcriptase; catalogue No. 18064-014, GibcoBRL) using fluorescence-labeled nucleotides to give cDNAs that were introduced with Cy3-dUTP or Cy5-dUTP during the reverse transcription.
# The labeled cDNAs were dissolved in TE buffer (10 mM Tris-HCl/1 mM EDTA, pH8.0), and the solution was dropped on the DNA chip containing the whole genes of yeast (DNA Chip Research Inc. Japan) so that the cDNAs were hybridized on the DNA chip at 65° C. for over 12 hours. The fluoresces intensity of the DNA chip was read with a scanner, and the ratio relative to the fluorescence intensity resulting from the absence of chemical substance was estimated as the following, which is shown in Tables 1 to 9: [formula]
# In the Tables, “Intensity” indicated in the rightmost column is a value of the level of expressed mRNA of each gene in control cells as divided by the average level of the expressions of the whole genes.
structure (smiles),measurement,setting,value
"S=C([S-])NCCNC(=S)[S-].[Zn+2] [(11), zinc N,N′-ethylenebis(dithiocarbamate)]",level of expressed mRNA in the presence of chemical substance/in its absence,gene YGR282C,1.5
same,The level of expressed mRNA in the presence of chemical substance/absence: YGR293C,gene YGR293C,0.6
same,The level of expressed mRNA in the presence of chemical substance/absence: YHL006C,gene YHL006C,0.7
same,The level of expressed mRNA in the presence of chemical substance/absence: YHL021C,gene YHL021C,1.4
same,The level of expressed mRNA in the presence of chemical substance/absence: YHL037C,gene YHL037C,1.0
same,level of expressed mRNA in the presence of chemical substance/in its absence,gene YHR037W,1.7
same,The level of expressed mRNA in the presence of chemical substance/absence: YHR083W,gene YHR083W,1.3
same,level of expressed mRNA in the presence of chemical substance/in its absence,gene YHR092C,1.5
same,The level of expressed mRNA in the presence of chemical substance/absence: YHR095W,gene YHR095W,1.3
same,The level of expressed mRNA in the presence of chemical substance/absence: YHR105W,gene YHR105W,0.7
same,The level of expressed mRNA in the presence of chemical substance/absence: YHR134W,gene YHR134W,0.7
same,level of expressed mRNA in the presence of chemical substance/in its absence,gene YHR137W,0.6
same,The level of expressed mRNA in the presence of chemical substance/absence: YHR180W,gene YHR180W,1.4
same,The level of expressed mRNA in the presence of chemical substance/absence: YHR181W,gene YHR181W,1.3
same,level of expressed mRNA in the presence of chemical substance/in its absence,gene YHR190W,1.3
same,level of expressed mRNA in the presence of chemical substance/in its absence,gene YIL033C,1.8
same,The level of expressed mRNA in the presence of chemical substance/absence: YIL108W,gene YIL108W,1.2
same,The level of expressed mRNA in the presence of chemical substance/absence: YIL127C,gene YIL127C,0.9
same,level of expressed mRNA in the presence of chemical substance/in its absence,gene YIL154C,1.2
same,The level of expressed mRNA in the presence of chemical substance/absence: YIL165C,gene YIL165C,1.1
same,level of expressed mRNA in the presence of chemical substance/in its absence,gene YIL167W,1.9
same,level of expressed mRNA in the presence of chemical substance/in its absence,gene YIR035C,1.3
same,The level of expressed mRNA in the presence of chemical substance/absence: YJL017W,gene YJL017W,1.4
same,The level of expressed mRNA in the presence of chemical substance/absence: YJL032W,gene YJL032W,1.8
same,The level of expressed mRNA in the presence of chemical substance/absence: YJL037W,gene YJL037W,1.6
same,The level of expressed mRNA in the presence of chemical substance/absence: YJL049W,gene YJL049W,1.5
same,level of expressed mRNA in the presence of chemical substance/in its absence,gene YJL088W,0.9
same,The level of expressed mRNA in the presence of chemical substance/absence: YJL097W,gene YJL097W,1.5
same,level of expressed mRNA in the presence of chemical substance/in its absence,gene YJL132W,1.4
same,level of expressed mRNA in the presence of chemical substance/in its absence,gene YJL196C,2.3
same,The level of expressed mRNA in the presence of chemical substance/absence: YJR030C,gene YJR030C,0.8
same,The level of expressed mRNA in the presence of chemical substance/absence: YJR044C,gene YJR044C,1.9
same,level of expressed mRNA in the presence of chemical substance/in its absence,gene YJR142W,0.9
same,level of expressed mRNA in the presence of chemical substance/in its absence,gene YJR148W,0.6
same,level of expressed mRNA in the presence of chemical substance/in its absence,gene YJR159W,2.2
same,The level of expressed mRNA in the presence of chemical substance/absence: YKL051W,gene YKL051W,1.8
same,The level of expressed mRNA in the presence of chemical substance/absence: YKL059C,gene YKL059C,0.9
same,level of expressed mRNA in the presence of chemical substance/in its absence,gene YKL067W,1.8
same,The level of expressed mRNA in the presence of chemical substance/absence: YKL090W,gene YKL090W,2.3
same,The level of expressed mRNA in the presence of chemical substance/absence: YKL094W,gene YKL094W,1.3
same,The level of expressed mRNA in the presence of chemical substance/absence: YKL097C,gene YKL097C,0.6
same,The level of expressed mRNA in the presence of chemical substance/absence: YKL100C,gene YKL100C,1.6
same,level of expressed mRNA in the presence of chemical substance/in its absence,gene YKR039W,1.9
same,The level of expressed mRNA in the presence of chemical substance/absence: YKR040C,gene YKR040C,0.8
same,The level of expressed mRNA in the presence of chemical substance/absence: YLR097C,gene YLR097C,1.7
same,level of expressed mRNA in the presence of chemical substance/in its absence,gene YLR142W,3.8
same,level of expressed mRNA in the presence of chemical substance/in its absence,gene YLR180W,1.7
same,The level of expressed mRNA in the presence of chemical substance/absence: YLR226W,gene YLR226W,0.8
same,level of expressed mRNA in the presence of chemical substance/in its absence,gene YLR273C,1.4
same,level of expressed mRNA in the presence of chemical substance/in its absence,gene YLR300W,1.0
same,level of expressed mRNA in the presence of chemical substance/in its absence,gene YLR307W,0.8
same,The level of expressed mRNA in the presence of chemical substance/absence: YLR338W,gene YLR338W,0.9
same,The level of expressed mRNA in the presence of chemical substance/absence: YLR339C,gene YLR339C,1.6
same,The level of expressed mRNA in the presence of chemical substance/absence: YLR392C,gene YLR392C,1.4
same,The level of expressed mRNA in the presence of chemical substance/absence: YLR415C,gene YLR415C,0.8
same,The level of expressed mRNA in the presence of chemical substance/absence: YLR427W,gene YLR427W,0.8
same,The level of expressed mRNA in the presence of chemical substance/absence: YML013W,gene YML013W,1.1
same,The level of expressed mRNA in the presence of chemical substance/absence: YML029W,gene YML029W,1.2
same,The level of expressed mRNA in the presence of chemical substance/absence: YML041C,gene YML041C,0.9
same,The level of expressed mRNA in the presence of chemical substance/absence: YML079W,gene YML079W,1.2
same,level of expressed mRNA in the presence of chemical substance/in its absence,gene YML110C,1.7
same,The level of expressed mRNA in the presence of chemical substance/absence: YML118W,gene YML118W,1.3
same,The level of expressed mRNA in the presence of chemical substance/absence: YMR068W,gene YMR068W,1.1
same,The level of expressed mRNA in the presence of chemical substance/absence: YMR071C,gene YMR071C,1.2
same,level of expressed mRNA in the presence of chemical substance/in its absence,gene YMR105C,3.0
same,The level of expressed mRNA in the presence of chemical substance/absence: YMR114C,gene YMR114C,1.0
same,The level of expressed mRNA in the presence of chemical substance/absence: YMR115W,gene YMR115W,1.1
same,The level of expressed mRNA in the presence of chemical substance/absence: YMR160W,gene YMR160W,1.0
same,level of expressed mRNA in the presence of chemical substance/in its absence,gene YMR189W,8.2
same,The level of expressed mRNA in the presence of chemical substance/absence: YMR258C,gene YMR258C,1.4
same,level of expressed mRNA in the presence of chemical substance/in its absence,gene YMR271C,1.7
same,level of expressed mRNA in the presence of chemical substance/in its absence,gene YMR272C,0.8
same,level of expressed mRNA in the presence of chemical substance/in its absence,gene YMR296C,0.8
same,level of expressed mRNA in the presence of chemical substance/in its absence,gene YNL012W,1.6
same,The level of expressed mRNA in the presence of chemical substance/absence: YNL026W,gene YNL026W,1.1
same,level of expressed mRNA in the presence of chemical substance/in its absence,gene YNL037C,1.4
same,level of expressed mRNA in the presence of chemical substance/in its absence,gene YNL045W,2.1
same,The level of expressed mRNA in the presence of chemical substance/absence: YNL058C,gene YNL058C,1.0
same,The level of expressed mRNA in the presence of chemical substance/absence: YNL063W,gene YNL063W,1.1
same,level of expressed mRNA in the presence of chemical substance/in its absence,gene YNL104C,2.1
same,level of expressed mRNA in the presence of chemical substance/in its absence,gene YNL106C,0.9
same,level of expressed mRNA in the presence of chemical substance/in its absence,gene YNL130C,1.5
same,level of expressed mRNA in the presence of chemical substance/in its absence,gene YNL169C,0.8
same,The level of expressed mRNA in the presence of chemical substance/absence: YNL176C,gene YNL176C,1.2
same,The level of expressed mRNA in the presence of chemical substance/absence: YNL181W,gene YNL181W,1.2
same,The level of expressed mRNA in the presence of chemical substance/absence: YNL191W,gene YNL191W,1.0
same,The level of expressed mRNA in the presence of chemical substance/absence: YNL194C,gene YNL194C,17.1
same,The level of expressed mRNA in the presence of chemical substance/absence: YNL200C,gene YNL200C,3.1
same,The level of expressed mRNA in the presence of chemical substance/absence: YNL212W,gene YNL212W,1.3
same,level of expressed mRNA in the presence of chemical substance/in its absence,gene YNL231C,1.3
same,The level of expressed mRNA in the presence of chemical substance/absence: YNL253W,gene YNL253W,0.8
same,The level of expressed mRNA in the presence of chemical substance/absence: YNL265C,gene YNL265C,0.9
same,The level of expressed mRNA in the presence of chemical substance/absence: YNL276C,gene YNL276C,0.7
same,level of expressed mRNA in the presence of chemical substance/in its absence,gene YNL322C,0.6
same,level of expressed mRNA in the presence of chemical substance/in its absence,gene YNR002C,1.6
same,level of expressed mRNA in the presence of chemical substance/in its absence,gene YNR019W,0.7
same,level of expressed mRNA in the presence of chemical substance/in its absence,gene YNR033W,0.4
same,The level of expressed mRNA in the presence of chemical substance/absence: YNR051C,gene YNR051C,1.5
same,level of expressed mRNA in the presence of chemical substance/in its absence,gene YNR059W,1.0
same,The level of expressed mRNA in the presence of chemical substance/absence: YOL026C,gene YOL026C,1.2
same,The level of expressed mRNA in the presence of chemical substance/absence: YOL030W,gene YOL030W,1.3
same,level of expressed mRNA in the presence of chemical substance/in its absence,gene YOL058W,2.3
same,level of expressed mRNA in the presence of chemical substance/in its absence,gene YOL126C,1.8
same,level of expressed mRNA in the presence of chemical substance/in its absence,gene YOL143C,2.0
same,level of expressed mRNA in the presence of chemical substance/in its absence,gene YOL153C,2.4
same,level of expressed mRNA in the presence of chemical substance/in its absence,gene YOL157C,1.2
same,The level of expressed mRNA in the presence of chemical substance/absence: YOR022C,gene YOR022C,1.7
same,The level of expressed mRNA in the presence of chemical substance/absence: YOR087W,gene YOR087W,1.3
same,The level of expressed mRNA in the presence of chemical substance/absence: YOR088W,gene YOR088W,0.8
same,level of expressed mRNA in the presence of chemical substance/in its absence,gene YOR099W,1.2
same,level of expressed mRNA in the presence of chemical substance/in its absence,gene YOR130C,0.6
same,level of expressed mRNA in the presence of chemical substance/in its absence,gene YOR136W,1.4
same,The level of expressed mRNA in the presence of chemical substance/absence: YOR138C,gene YOR138C,0.7
same,The level of expressed mRNA in the presence of chemical substance/absence: YOR155C,gene YOR155C,1.6
